Experimental data: the NIST ThermoML archive (doi:10.1021/je700260f)

Details: 303.15 K, Liquid, Vibrating tube method

FC(C(F)(F)F)C(F)(F)F [1,1,1,2,3,3,3-heptafluoropropane]
Details	mass density [kg/m3]
26981 kPa	1505.7
27006 kPa	1505.7
27035 kPa	1505.9
27060 kPa	1506
27246 kPa	1506.5
27275 kPa	1506.7
27304 kPa	1506.8
27334 kPa	1506.8
27368 kPa	1507.1
27464 kPa	1507.4
28427 kPa	1510.7
28456 kPa	1510.8
28486 kPa	1510.9
28516 kPa	1510.9
28541 kPa	1511.1
28576 kPa	1511.2
28601 kPa	1511.3
28636 kPa	1511.4
28661 kPa	1511.3
28700 kPa	1511.5
28729 kPa	1511.7
28768 kPa	1511.7
28793 kPa	1511.8
28832 kPa	1512
28858 kPa	1512.2
28893 kPa	1512.3
28924 kPa	1512.3
28967 kPa	1512.6
28997 kPa	1512.6
29020 kPa	1512.7
29047 kPa	1512.7
29074 kPa	1512.8
29113 kPa	1513
29139 kPa	1513
29169 kPa	1513
29196 kPa	1513.3
29235 kPa	1513.4
29267 kPa	1513.4
29298 kPa	1513.6
29323 kPa	1513.6
29349 kPa	1513.7
29389 kPa	1513.9
29429 kPa	1514.1
29461 kPa	1514.1
29492 kPa	1514.2
29527 kPa	1514.4
29554 kPa	1514.5
29584 kPa	1514.6
29614 kPa	1514.7
29645 kPa	1514.6
29676 kPa	1514.8
29706 kPa	1515
29746 kPa	1515
29773 kPa	1515.3
29800 kPa	1515.3
29831 kPa	1515.3
29866 kPa	1515.5
29892 kPa	1515.6
29927 kPa	1515.6
29953 kPa	1515.7
29984 kPa	1515.8
30015 kPa	1516
30043 kPa	1516.2
30079 kPa	1516.2
30110 kPa	1516.3
30145 kPa	1516.4
30176 kPa	1516.5
30211 kPa	1516.5
30247 kPa	1516.7
30277 kPa	1516.8
30316 kPa	1516.9
30341 kPa	1516.9
30376 kPa	1517.1
30406 kPa	1517.2
30437 kPa	1517.3
30464 kPa	1517.4
30502 kPa	1517.5
30529 kPa	1517.6
30561 kPa	1517.7
30597 kPa	1517.8
30619 kPa	1518
30655 kPa	1518.1
30678 kPa	1518.1
30713 kPa	1518.1
30735 kPa	1518.4
30769 kPa	1518.4
30805 kPa	1518.6
30842 kPa	1518.6
30873 kPa	1518.8
30910 kPa	1518.8
30945 kPa	1518.9
30977 kPa	1519.1
31009 kPa	1519
31044 kPa	1519.2
31076 kPa	1519.4
31117 kPa	1519.6
31149 kPa	1519.7
31186 kPa	1519.7
31223 kPa	1519.8
31256 kPa	1519.8
31292 kPa	1519.9
31319 kPa	1520.1
31351 kPa	1520.3
